Measurements taken from patent publication US5776903A, “Peptide derivatives usable as zinc endopeptidase 24-15 inhibitors” (Commissariat A l'Energie Atomique, priority 1995, dated 1998).

Tests used:
endopeptidase 24-16 = endopeptidase 24-16 (Homo sapiens, UniProt Q9BYT8); test: Inhibition of neurotensin degradation by purified endopeptidase 24-16 (HPLC), inhibition constant Ki; type: biochemical; details: neurotensin 20 μmole/l, 1 hour at 30° C., tris-HCl pH 7.5
Protocol: This example studies the inhibiting effect of the peptides of the invention with respect to endopeptidase 24-16.
To this end, incubation takes place for 1 hour at 30° C. of 2 nmole (20 μmole/l) of neurotensin, which is a known endopeptidase 24-16 substrate with 8 μg of endopeptidase 24-16 purified in a final volume of 100 μl of tris-HCl buffer, 50 mM, pH 7.5, in the absence of peptide (control) or in the presence of the peptide tested at concentrations from 10^-11 to 10^-7 mole/l. After 1 hour of incubation analysis takes place of the solutions by HPLC and the inhibition constant Ki of the tested peptide is determined.

endopeptidase 24-15 = endopeptidase 24-15 (Rattus norvegicus, UniProt P24155); test: Inhibition of neurotensin degradation by purified endopeptidase 24-15 (HPLC), inhibition constant Ki; details: for SELECTIVITY (ratio Ki24-16 /Ki24-15): selectivity relative to endopeptidase 24-16; for Ki expected for one of the diastereoisomers of the mixture: extrapolated from Ki of the mixture of 4 diastereoisomers; for affinity difference / power factor relative to Cpp-Ala-Pro-Phe-pAb: for the expected single diastereoisomer versus known inhibitor (Ki 7 nM)
Protocol: Incubation takes place for 1 hour at 37° C. of 2 nmole (20 μmole/l) of neurotensin, which is a known endopeptidase 24-15 substrate, with 7 μg of purified endopeptidase 24-15 in a final volume of 100 μl of tris-HCl buffer, 50 nM, pH 7.5, in the absence of an inhibitor (control) or in the presence of the peptide tested at concentrations from 10^-11 to 10^-7 mole/l. After 1 hour incubation analysis takes place of the solutions by HPLC. On the basis of this analysis the inhibition constant Ki of the tested peptide is determined.

[1] = target: endopeptidase 24-15 of the rat (Rattus norvegicus, UniProt P24155); details: as described by Dando et al; read-out: inhibition constant Ki with respect to endopeptidase 24-15 of the rat; cited from earlier work
Sequence of endopeptidase 24-15 of the rat (P24155 whole entry): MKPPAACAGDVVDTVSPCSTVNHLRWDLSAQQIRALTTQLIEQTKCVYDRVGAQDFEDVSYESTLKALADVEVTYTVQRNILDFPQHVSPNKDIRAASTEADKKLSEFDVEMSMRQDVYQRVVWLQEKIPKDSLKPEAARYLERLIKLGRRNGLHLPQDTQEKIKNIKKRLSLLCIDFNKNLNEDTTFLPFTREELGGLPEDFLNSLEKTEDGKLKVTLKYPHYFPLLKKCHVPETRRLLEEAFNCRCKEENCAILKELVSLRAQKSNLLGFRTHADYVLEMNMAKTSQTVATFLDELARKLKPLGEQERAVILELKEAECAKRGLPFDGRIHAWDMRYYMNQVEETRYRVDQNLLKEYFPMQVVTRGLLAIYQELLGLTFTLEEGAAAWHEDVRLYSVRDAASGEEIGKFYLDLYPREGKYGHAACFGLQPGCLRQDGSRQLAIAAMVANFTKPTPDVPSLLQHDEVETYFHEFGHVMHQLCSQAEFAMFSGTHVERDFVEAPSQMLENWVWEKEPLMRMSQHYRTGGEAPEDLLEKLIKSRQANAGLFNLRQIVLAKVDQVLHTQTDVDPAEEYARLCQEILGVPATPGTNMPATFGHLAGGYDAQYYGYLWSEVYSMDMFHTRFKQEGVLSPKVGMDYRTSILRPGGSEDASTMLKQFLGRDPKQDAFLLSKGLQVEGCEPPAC

Sequence of endopeptidase 24-16 (Q9BYT8 38-704): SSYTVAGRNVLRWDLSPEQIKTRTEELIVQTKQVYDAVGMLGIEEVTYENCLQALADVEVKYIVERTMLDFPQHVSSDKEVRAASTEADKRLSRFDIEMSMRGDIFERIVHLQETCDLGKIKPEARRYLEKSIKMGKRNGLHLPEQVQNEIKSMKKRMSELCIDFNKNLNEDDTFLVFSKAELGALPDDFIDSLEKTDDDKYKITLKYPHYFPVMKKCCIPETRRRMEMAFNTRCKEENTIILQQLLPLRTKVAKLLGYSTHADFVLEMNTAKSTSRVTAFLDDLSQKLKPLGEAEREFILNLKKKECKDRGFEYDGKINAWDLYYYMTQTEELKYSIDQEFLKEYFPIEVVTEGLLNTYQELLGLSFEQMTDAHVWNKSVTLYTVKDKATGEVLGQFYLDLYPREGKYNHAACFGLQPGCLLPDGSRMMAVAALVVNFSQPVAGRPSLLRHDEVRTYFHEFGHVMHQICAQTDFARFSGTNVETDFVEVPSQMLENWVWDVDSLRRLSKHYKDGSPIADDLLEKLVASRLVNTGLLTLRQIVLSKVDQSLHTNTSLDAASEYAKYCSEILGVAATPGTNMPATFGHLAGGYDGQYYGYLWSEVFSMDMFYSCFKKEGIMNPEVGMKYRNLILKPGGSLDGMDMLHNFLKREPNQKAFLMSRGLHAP
Sequence of endopeptidase 24-15 (P24155 whole entry): as the sequence (P24155 whole entry) above

Row | Compound | Ki (endopeptidase 24-16) [nM] | Ki (endopeptidase 24-15) [nM] | SELECTIVITY (ratio Ki24-16 /Ki24-15) (endopeptidase 24-15) | Ki expected for one of the diastereoisomers of the mixture (endopeptidase 24-15) | affinity difference / power factor relative to Cpp-Ala-Pro-Phe-pAb (endopeptidase 24-15) | Ki [1] [nM]
1 | CCCC[C@H](NC(=O)[C@H](CCCCN)NC(=O)C(C)CP(=O)(O)C(Cc1ccccc1)NC(=O)OCc1ccccc1)C(=O)O (mixture of isomers) [compound 23, Z--Phe .PSI. (PO2 CH2)Ala--Lys--Nle] | 162 | 0.63 | 257 |  |  | 
2 | CC(CP(=O)(O)C(Cc1ccccc1)NC(=O)OCc1ccccc1)C(=O)N[C@@H](CCCCN)C(=O)N[C@@H](C)C(=O)O (mixture of isomers) [compound 24, Z--Phe .PSI. (PO2 CH2)Ala--Lys--Ala] | 436 | 0.83 | 525 |  |  | 
3 | CC(CP(=O)(O)C(Cc1ccccc1)NC(=O)OCc1ccccc1)C(=O)N[C@@H](CCCCN)C(=O)N[C@@H](Cc1ccccc1)C(=O)O (mixture of isomers) [compound 25, Z--Phe .PSI. (PO2 CH2)Ala--Lys--Phe] | 1650 | 1 | 1652 |  |  | 
4 | CC(C)C[C@H](NC(=O)[C@H](CCCCN)NC(=O)C(C)CP(=O)(O)C(Cc1ccccc1)NC(=O)OCc1ccccc1)C(=O)O (mixture of isomers) [compound 26, Z--Phe .PSI. (PO2 CH2)Ala--Lys--Leu] | 893 | 1.82 | 491 |  |  | 
5 | CC[C@H](C)[C@H](NC(=O)[C@H](CCCCN)NC(=O)C(C)CP(=O)(O)C(Cc1ccccc1)NC(=O)OCc1ccccc1)C(=O)O (mixture of isomers) [compound 27, Z--Phe .PSI. (PO2 CH2)Ala--Lys--Ile] | 1260 | 1.94 | 652 |  |  | 
6 | CSCC[C@H](NC(=O)[C@H](CCCNC(=N)N)NC(=O)C(C)CP(=O)(O)C(Cc1ccccc1)NC(=O)OCc1ccccc1)C(=O)O (mixture of isomers) [compound 42, Z--Phe .PSI. (PO2 CH2)Ala--Arg--Met] | 88 | 0.067 | 1312 | approximately 15 pM | 440 | 
7 | CC(CP(=O)(O)C(Cc1ccccc1)NC(=O)OCc1ccccc1)C(=O)N[C@@H](CCCNC(=N)N)C(=O)N[C@@H](Cc1ccccc1)C(=O)O (mixture of isomers) [compound 43, Z--Phe .PSI. (PO2 CH2)Ala--Arg--Phe] | 527 | 0.158 | 3335 | approximately 40 pM | approximately 175 | 
8 | CC(C)CC(CP(=O)(O)C(Cc1ccccc1)NC(=O)OCc1ccccc1)C(=O)N[C@@H](CCCNC(=N)N)C(=O)N[C@@H](Cc1ccccc1)C(=O)O (mixture of isomers) [compound 44, Z--Phe .PSI. (PO2 CH2)Leu--Arg--Phe] | 2290 | 14 | 164 |  |  | 
9 | Cpp-Ala-Pro-Phe-pAb |  |  |  |  |  | 7
